Measurements published in patent publication US20150087856A1, “MELANIN PRODUCTION INHIBITOR” (TAKASAGO INTERNATIONAL CORPORATION, priority 2012, published 2015).

How the values were obtained:
Assay type in all cases: cell-based
[1] = tested on: B-16 melanoma cells; experiment: Visual Evaluation Test for Melanin Production Inhibition in Pigment Cells; set-up: key to Visual evaluation of melanin production inhibition (whiteness of cell sediment): −: The same as the solvent control (black); +: Slightly different from the solvent control (dark gray); ++: Apparently different from the solvent control (light gray); +++: Cells were not colored (white); conditions: for Visual evaluation of melanin production inhibition (whiteness of cell sediment): B-16 melanoma cells, four days
Protocol: In plastic culture flasks (25 cm^2), B-16 melanoma cells were seeded at 5×10^4 per flask, and cultured in DMEM (Dulbecco's Modified Eagle's Medium) containing 10% serum [Nippon Suisan Kaisha, Ltd, trade name] in the presence of 5% carbon dioxide at a temperature of 37° C. On the next day, each test sample diluted with ethanol was added at concentrations in the medium of 3.13, 6.25, 12.5, 25, and 50 ppm, and the cells were cultured for further four days. After the culturing was finished, the medium was removed, and the cells were rinsed with phosphate buffered solution (hereinafter, referred to as PBS). Then, the cells were detached from each flask by using trypsin-containing PBS, and were harvested from the cell suspension by centrifugation. After the obtained cells were rinsed once with PBS, the whiteness of the sediment was visually observed. Compounds 2A and 2B were used as comparative materials.
Activity: The activity was evaluated by using the following four grades. −: The same as the solvent control (black) +: Slightly different from the solvent control (dark gray) ++: Apparently different from the solvent control (light gray) +++: Cells were not colored (white)

[2] = tested on: B-16 melanoma cells; experiment: Quantification Test for Melanin Production Inhibition in Pigment Cells (melanin inhibition ratio); conditions: 6.25 ppm; for Melanin production inhibition ratio: B-16 melanoma cells, two days; for Melanin production-inhibitory activity compared with arbutin in the quantification test: comparison with arbutin
Protocol: (§1) In plastic culture flasks (25 cm^2), B-16 melanoma cells were seeded at 5×10^4 per flask, and cultured in DMEM containing 10% serum in the presence of 5% carbon dioxide at a temperature of 37° C. After culturing for three days, each test sample diluted with ethanol was added at a concentration in the medium of 6.25 ppm, and the cells were culture for further two days. After the culturing was finished, the medium was removed, and the cells were rinsed with phosphate buffered solution (hereinafter referred to as PBS). Then, the cells were detached from each flask by using trypsin-containing PBS, and harvested from the cell suspension by centrifugation. To the obtained cells, 2 ml of DMEM was added, and the cells were dispersed by gentle pipetting. Of the DMEM, 100 μl was diluted with DMEM to achieve 1×10^4 to 5×10^5 cells/ml. Then, the number of the cells was counted with Scepter™ 2.0 automated cell counter (Merck Millipore), and the cell growth ratio was determined. The cell growth ratio was determined by the following formula.
The rest of the cell suspension was again centrifuged, and the medium was removed. After that, an operation in which the cells were rinsed with 1 ml of very cool 5% trichloroacetic acid and centrifuged was repeated three times, and further the cells were rinsed twice by adding 1 ml of ethanol/ethyl ether (3:1 volume ratio) and centrifuged. Finally, the cells were rinsed once with 1 ml of ethyl ether, centrifuged, and air-dried over night. To the dried cells, 2 N NaOH was added, and melanin in the cells was dissolved in a water bath of 60° C. After cooling, the absorbance at 415 nm was measured by using a microplate reader (BIO-RAD MICROPLATE READER Benchmark-). From the measured value, the amount of melanin per 10^6 cells was calculated by conversion using a standard curve obtained by using synthesized melanin (NACALAI TESQUE, INC.), and the melanin inhibition ratio was determined. The melanin inhibition ratio was determined by the following formula:
Melanin inhibition ratio (%)=[(amount of melanin of control−amount of melanin of sample)/(amount of melanin of control)]×100

[3] = tested on: B-16 melanoma cells; experiment: Cell growth ratio in the quantification test (cell count); conditions: 6.25 ppm, two days, relative to control
Protocol: as §1
Cell growth ratio (%)=(number of cells of sample/number of cells of control)×100

Molecule | Visual evaluation of melanin production inhibition (whiteness of cell sediment) ([1]; 3.13 ppm in medium) | Visual evaluation of melanin production inhibition (whiteness of cell sediment) ([1]; 6.25 ppm in medium) | Visual evaluation of melanin production inhibition (whiteness of cell sediment) ([1]; 12.5 ppm in medium) | Activity compared with arbutin in the visual evaluation test ([1]; comparison with arbutin) | Melanin production inhibition ratio [2] [%] | Melanin production-inhibitory activity compared with arbutin in the quantification test [2] | Cell growth ratio [3] [%] | Visual evaluation of melanin production inhibition (whiteness of cell sediment) ([1]; 25 ppm in medium) | Activity compared with arbutin in the visual evaluation test at 6.25 ppm ([1]; 6.25 ppm, comparison with arbutin) | Visual evaluation of melanin production inhibition (whiteness of cell sediment) ([1]; 50 ppm in medium)
2-isopropyl-5-methylcyclohexanols [Compound 1H] | + | ++ | +++ | almost the same activity as that of arbutin | 49.0 | higher melanin production-inhibitory activity than arbutin | 102.1 |  |  | 
CC(C)[C@@H]1CC[C@@H](C)C[C@@H]1O (relative stereo) [Compound 1I, (1S*,2S*,5R*)-2-isopropyl-5-methylcyclohexanol] |  | + | +++ |  |  |  |  |  |  | 
CC(C)[C@H]1CC[C@@H](C)C[C@@H]1O (relative stereo) [Compound 1J, (1S*,2R*,5R*)-2-isopropyl-5-methylcyclohexanol] |  | + | +++ |  |  |  |  |  |  | 
CC(C)[C@H]1CC[C@@H](C)C[C@H]1O (relative stereo) [Compound 1K, (1R*,2R*,5R*)-2-isopropyl-5-methylcyclohexanol] |  | + | +++ |  |  |  |  |  |  | 
OC[C@H]1O[C@@H](Oc2ccc(O)cc2)[C@H](O)[C@@H](O)[C@@H]1O [Arbutin, arbutin, reference compound] | + | ++ | +++ |  | 35.5 |  | 94.1 |  |  | 
C=C(C)[C@@H]1CC[C@@H](C)C[C@H]1O [Compound 1A, (1R,2S,5R)-5-methyl-2-isopropenylcyclohexanol] |  | − | ++ |  |  |  |  | +++ |  | 
CC1CCC(C(C)C)C(OCC(O)CO)C1 (stereo not shown) [Compound 1B, 3-(2-isopropyl-5-methylcyclohexyloxy)propane-1,2-diol] | + | ++ |  |  | 37.0 | higher melanin production-inhibitory activity than arbutin | 93.2 |  |  | 
CC1CCC(C(C)C)C(OCCCO)C1 (stereo not shown) [Compound 1C, 3-(2-isopropyl-5-methylcyclohexyloxy)propan-1-ol] | − | ++ | +++ | almost the same activity as that of arbutin | 52.0 | higher melanin production-inhibitory activity than arbutin | 103.1 |  |  | 
CC(O)CC(=O)OC1CC(C)CCC1C(C)C (stereo not shown) [Compound 1D, 2-isopropyl-5-methylcyclohexyl 3-hydroxybutyrate] | − | ++ | +++ | almost the same activity as that of arbutin | 52.8 | higher melanin production-inhibitory activity than arbutin | 104.9 |  |  | 
CC1CCC(C(C)C)C(OCCOCCO)C1 (stereo not shown) [Compound 1E, 2-(2-(2-isopropyl-5-methylcyclohexyloxy)ethoxy)ethanol] | − | + | ++ |  | 23.3 |  | 96.4 |  |  | 
CC(O)COC1CC(C)CCC1C(C)C (stereo not shown) [Compound 1F, 1-(2-isopropyl-5-methylcyclohexyloxy)propan-2-ol] |  | ++ | +++ | almost the same activity as that of arbutin |  |  |  |  |  | 
CC(=O)CC(=O)OC1CC(C)CCC1C(C)C (stereo not shown) [Compound 1G, 2-isopropyl-5-methylcyclohexyl 3-oxobutyrate] | + | +++ | +++ |  | 41.5 | higher melanin production-inhibitory activity than arbutin | 87.8 |  | higher activity than arbutin | 
CCNC(=O)C1CC(C)CCC1C(C)C (stereo not shown) [Compound 2A, N-ethyl-5-methyl-2-isopropylcyclohexane carboxamide, reference compound] |  | − | + |  |  |  |  | ++ |  | +++
CNC(=O)C(C)(C(C)C)C(C)C [Compound 2B, N,2,3-trimethyl-2-isopropylbutanamide, reference compound] |  |  |  |  |  |  |  | − |  | +
